Reference: patent publication US20170065564A1, “BIS-CYCLIC GUANIDINE COMPOUND COMPOSITIONS, METHODS OF USE AND TREATMENT THEREOF” (University of South Florida, priority 2014, published 2017)
Values after ≈ are worked out from the molar mass of the structure shown.

Legend:
human A549 cells = assay: Cytotoxicity assay (MTT); assay type: cell-based
Description: Cytotoxicity assays were performed using human A549 cells (adenocarcinomic human alveolar epithelial cells), as described by us previously.^44 Briefly, cells were cultured in F-12K Nutrient mixture (Kaighn's Modification) media containing L-glutamine, supplemented with 10% fetal bovine serum and 1% penicillin-streptomycin for 3 days at 37° and 5% CO2. Cells were then diluted to 1.0×10^5 ml^−1 using F-12K supplemented media, and added to 96 well tissue culture plates at a volume of 100 μl. Plates were incubated for 24 hours at 37° C. and 5% CO2, allowing the cells to adhere to the plastic. […] Plates were then incubated for 48 hours at 37° C. and 5% CO2. After 48 hours the media was removed, and new media added containing MTT (3-(4, 5-dimethylthiazol-2-yl)-2, 5-diphenyltetrazolium bromide), followed by incubation for four hours at 37° C. and 5% CO2. After 4 h, 50 μl of media was removed, replaced with DMSO and incubated for ten minutes at 37° C. in order to solubilize any formazan produced. A Biotek plate reader was used to measure the absorbance of formazan production at […], and IC50 values were determined for each of the five compounds. Front runners were solvated in 45% w/v (2-hydroxypropyl)-β-cyclodextrin in water for these studies; which was also used alone as a negative control. IC50 values were determined for each compound by comparison to vehicle only controls, to assess toxicity to human cells.

Acinetobacter baumannii = assay: MIC micro broth dilution assay; assay type: cell-based; details: for MIC: Acinetobacter baumannii
Summary of the method: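 Strains were multidrug-resistant clinical isolates grown in LB (Gram-negative) or TSB (Gram-positive), diluted 1:1,000 before compound addition.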

Pseudomonas aeruginosa = assay: MIC micro broth dilution assay; assay type: cell-based; details: for MIC: Pseudomonas aeruginosa
Description: For this study we used a representative panel of multi-drug resistant clinical ESKAPE pathogen isolates (Supplemental Table S6).^42 43 3a, 44 45 Gram-positive organisms were grown in tryptic soy broth media (TSB), whilst Gram-negative organisms were grown in lysogeny Broth (LB), as described by us previously. ^43 MIC and MBC determination assays.
Broth cultures of ESKAPE strains were grown overnight before being diluted 1 in 1,000 in fresh media. Sterile 96-well plates were loaded with culture and compounds (in DMF) were added at decreasing concentrations to equal a total volume of 200 μl per well. Care was taken to not add more than 2.0% DMF to any well. Plates were then incubated at 37° C., and MICs determined after 24 hours by visual inspection for a lack of turbidity in wells. All assays were performed in triplicate with identical results obtained. For both the scaffold ranking and positional scanning samples, relative broad-spectrum activity was determined via stacked scores: […]

[1] = test system: Staphylococcus aureus (USA300 strain FPR3757); assay: Murine model of lethal peritonitis; assay type: in vivo, mice; details: 2× MIC, I.M., 1 h post-infection, six mice per group
Description: Using MRSA as a representative ESKAPE organism, we infected mice with 1×10^8 bacterial cells in 5% mucin via intraperitoneal injection. At 1 h post-infection, mice were then I.V. injected with either vancomycin (positive control), or I.M. with our front runner compounds.
Six mice per group were injected with 1×10^8 CFU ml^−1 of Staphylococcus aureus (USA300 strain FPR3757) in PBS containing 5% mucin. […] Mice were monitored twice daily for five days to assess mortality. The clinical endpoint of this study was when the mice reached a pre-moribund state. Characteristics of pre-moribund state include: hunched posture, rapid, shallow and/or labored breathing, ruffled fur, lethargy, failure to respond to stimuli, soiled anogenital area, paralysis, paresis, head tilt, circling, vocalizations, non-purposeful movements and/or were unable to eat or drink. Those mice reaching this state prior to the completion of the 5 day infection period were euthanized. The number of mice surviving between control and treatment groups was compared and analyzed for statistical significance using a log rank test.

E. cloacae = assay type: cell-based, Enterobacter cloacae; details: 8 passages, concentration doubled each day
Description: ESKAPE pathogens were grown overnight in liquid media at 37° C. These cultures were then diluted 1:100 in fresh media, and seeded into a 96-well plate. Lead bis-cyclic guanidines or control agents were added to respective wells at half MIC concentrations. […] These were then grown overnight, and the procedure repeated for a total of eight days.

S. aureus = assay: Resistance serial passage assay; assay type: cell-based, Staphylococcus aureus; details: 8 passages, concentration doubled each day
Description: ESKAPE pathogens were grown overnight in liquid media at 37° C. These cultures were then diluted 1:100 in fresh media, and seeded into a 96-well plate. Lead bis-cyclic guanidines or control agents were added to respective wells at half MIC concentrations. Plates were then incubated for 24 hours at 37° C., with bacteria removed from these cultures on the following day, to inoculate fresh media (1:100 dilution) containing compounds at a 2-fold higher concentrations. These were then grown overnight, and the procedure repeated for a total of eight days. […] Each experiment was performed in triplicate, yielding identical results.

ESKAPE pathogens = assay: MIC micro broth dilution assay, statements and stacked scores over all ESKAPE pathogens; assay type: cell-based; details: letters E,S,K,A,P,E = ESKAPE pathogens, — = none
Summary of the method: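 Overnight cultures of multidrug-resistant clinical isolates, diluted 1 in 1,000 (Gram-positives in TSB, Gram-negatives in LB), were exposed to decreasing compound concentrations in DMF (≤2.0%) at 37° C. MIC was read visually as no turbidity after 24 hours, in triplicate. Broad-spectrum activity was ranked by stacked scores.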

Structure (SMILES): CCCCCCCN1C(=N)N(CCCC[C@H]2CNC(=N)N2CCc2cccc(C(F)(F)F)c2)C[C@@H]1CC1CCCCC1 [Compound 7]
- IC50 (human A549 cells; Homo sapiens, A549, MTT, 48 hours): 65.7 µM
- A549 cell recovery compared to vehicle only controls (human A549 cells; above 45 μM, at concentrations up to 225 μM): ≥ 33%
- stacked score activity, 100/MIC, A (Acinetobacter baumannii; A. baumannii): 25
- MIC (Acinetobacter baumannii; A. baumannii isolate 1403): 2 µM (≈ 1.18 µg/mL)
- MIC (Acinetobacter baumannii; A. baumannii isolate 1643): 2 µM (≈ 1.18 µg/mL)
- MIC (Acinetobacter baumannii; A. baumannii isolate 1644): 2 µM (≈ 1.18 µg/mL)
- MIC (Acinetobacter baumannii; A. baumannii isolate 1647): 2 µM (≈ 1.18 µg/mL)
- MIC (Acinetobacter baumannii; A. baumannii isolate 1648): 2 µM (≈ 1.18 µg/mL)
- MIC (Acinetobacter baumannii; A. baumannii isolate 1649): 2 µM (≈ 1.18 µg/mL)
- MIC (Acinetobacter baumannii; A. baumannii isolate 1650): 2 µM (≈ 1.18 µg/mL)
- MIC (Acinetobacter baumannii; A. baumannii isolate 1651): 2 µM (≈ 1.18 µg/mL)
- MIC (Acinetobacter baumannii; A. baumannii isolate 1653): 2 µM (≈ 1.18 µg/mL)
- MIC (Acinetobacter baumannii; A. baumannii isolate 1654): 2 µM (≈ 1.18 µg/mL)
- MIC (Acinetobacter baumannii; purified compound, Table 1): 1.52 µM (≈ 0.898 µg/mL)
- MIC (Pseudomonas aeruginosa; P. aeruginosa isolate 1414): 3 µM (≈ 1.77 µg/mL)
- MIC (Pseudomonas aeruginosa; P. aeruginosa isolate 1415): 3 µM (≈ 1.77 µg/mL)
- MIC (Pseudomonas aeruginosa; P. aeruginosa isolate 1416): 2 µM (≈ 1.18 µg/mL)
- MIC (Pseudomonas aeruginosa; P. aeruginosa isolate 1417): 3 µM (≈ 1.77 µg/mL)
- MIC (Pseudomonas aeruginosa; P. aeruginosa isolate 1418): 7 µM (≈ 4.14 µg/mL)
- MIC (Pseudomonas aeruginosa; P. aeruginosa isolate 1419): 3 µM (≈ 1.77 µg/mL)
- MIC (Pseudomonas aeruginosa; P. aeruginosa isolate 1420): 5 µM (≈ 2.95 µg/mL)
- MIC (Pseudomonas aeruginosa; P. aeruginosa isolate 1421): 2 µM (≈ 1.18 µg/mL)
- MIC (Pseudomonas aeruginosa; P. aeruginosa isolate 1422): 5 µM (≈ 2.95 µg/mL)
- MIC (Pseudomonas aeruginosa; P. aeruginosa isolate 1423): 2 µM (≈ 1.18 µg/mL)
- MIC (Pseudomonas aeruginosa; purified compound, Table 1): 1.52 µM (≈ 0.898 µg/mL)
- concentration inhibiting 90% of isolates (Pseudomonas aeruginosa; panel of P. aeruginosa clinical isolates): 10 µM
- survival of infected mice over 5 day infection period [1]: 1 mouse lost on each of days 2 and 4
- increase in MIC after serial passage (E. cloacae): 8 fold
- increase in MIC after serial passage (S. aureus): four-fold
- pathogens against which the compound showed activity at 4 ug/ml (ESKAPE pathogens; dose 4 ug/ml): ESAP
- pathogens against which the compound showed activity at 5 ug/ml (ESKAPE pathogens; dose 5 ug/ml): ESKAPE
- pathogens against which the compound showed activity at 10 ug/ml (ESKAPE pathogens; dose 10 ug/ml): ESKAPE
- pathogens against which the compound showed activity at 25 ug/ml (ESKAPE pathogens; dose 25 ug/ml): ESKAPE
